Measured values as given in US8158623B2, “Heptacyclic compounds and the pharmaceutical uses thereof for preventing and treating diabetes and metabolic syndrome” (Shanghai Institute of Materia Medica Chinese Academy of …, priority 2007, dated 2012).
“And” between values parts separate entries of the source, which are not always exact repeats. Identical values can stand only once. “Also recorded” adds a separate entry of the source.

What was measured:
[1] = system: Acetyl CoA Carboxylase (ACC); test: Phosphorylation of ACC in HepG2 cell (Western blot); assay type: cell-based, Human; details: HepG2, 50 uM, 5 minutes, P<0.01 or P<0.05
Procedure: (§1) Human hepatoma carcinoma cell strain (HepG2, purchased from the cell bank of Shanghai Institute of Cell Biology of Chinese Academy) was used. The Human hepatoma carcinoma cells were passaged by 0.1% pancreatin/0.02% EDTA digestion, and cultured in a incubator at 37° C. using MEM culture medium containing 10% FBS, under 5% CO2/95%.
(§2) HepG2 cells were cultured in 6-well plates for 48 hours until 70%-80% confluence. Serum starvation was started by changing medium with MEM containing 0.5% BSA. After starvation for 6 hours, cells were treated with the compounds (final concentration of 50 uM, containing 0.25% DMSO) for 5 minutes. The culture medium was discarded, and cells were harvested and washed for twice with pre-cooled PBS. The washing liquid was discarded, and any residual PBS was blotted dry. DMSO without heptacyclic compounds was used as control.
(§3) Extraction of total cellular protein: 150 μl/well homogenizing buffer (137 mM NaCl, 2.7 mM KCl, 1 mM MgCl2, 0.5 mM Na3VO4, 1% Triton X-100, 10% Glycerol, 20 mM Tris-HCl pH 7.8, 1 ug/ml Leupeptin, 0.2 mM PMSF, 10 mM NaF, 1 ug/ml Aprotinin, 1 mM EDTA, 1 mM DTT, 5 mM Sodium pyrophosphate, 1 mM Benzamidine) was added. Cells were collected into a 1.5 ml centrifuge tube using cell scraper. Cells were homogenized using sonicator (5 W of power) for 2 times (3 seconds per time), and shaken on a shaker for 1 hour. Supernatant (i.e., total cellular protein) was collected by centrifuging at 14000 rpm for 15 min at 4° C., and stored at −70° C. until use. After the protein concentration was determined by Bradford method, the supernatant was formulated as the loading sample with final concentration of 0.6 mg/ml. The whole preparation process was performed at 4° C.
(§4) Protein Electrophoresis: After being treated at 95° C. for 5 min, the loading sample was loaded (15 μg protein/lane). The protein was separated on 7.5% SDS-acrylamide gel for 1-2 hours under the voltage of 80-120 V.
(§5) Electrotransferring the protein and blocking the membrane: After electrophoresis was finished, the protein was transferred to PVDF membrane using semi-dry transferring slot based on 0.8 mA/cm^2 membrane area under the electric current of 80 mA for 2 hours. After that, the membrane was shaken for 2 hours with 7.5% skim milk/TTBS to block the membrane.
(§6) Antigen-antibody reaction: After the blocking process was finished, the membrane was incubated with primary antibody (antibody against phosphorylated ACC (P-ACC) and antibody against phosphorylated AMPK (P-AMPK), all purchased from Cell signaling (USA), with the working concentration of 1:1000) overnight at 4° C. The membrane was removed, and the primary antibody was recovered. The membrane was washed 5 times, each for 10 min in TTBS. The membrane was shaken for 2 hours with the secondary antibody (horseradish peroxidase-conjugated goat-anti-rabbit IgG antibody, purchased from Bio-rad (USA), with the working concentration of 1:5000) at room temperature. The secondary antibody was discarded. The membrane was washed 5 times, each for 10 min in TTBS in order to remove the unbound secondary antibody.
(§7) ECL exposure and development: Luminescent agents, ECL 1, 2, were mixed homogeneously, and incubated with the membrane for 3-5 min. The membrane was removed, wrapped in preservative film, and transferred into dark room for exposure. After exposure with X-film, the film was developed, washed, recorded and conserved.
(§8) Semi-quantitative analysis was performed through optical density scan using computer image analysis system. Grey level of the protein expression was calculated. The target grey level was divided by the grey level of internal standard, and a histogram was plotted, taking the normal group as 1 unit.

[2] = system: AMP-Activated Protein Kinase (AMPK); test: Phosphorylation of AMPK in HepG2 cell (Western blot); assay type: cell-based, Human; details: HepG2, 50 uM, 5 minutes, P<0.01 or P<0.05
Procedure: as §1, §2, §3, §4, §5, §6, §7, §8

ob/ob mice [3] = test: Fasting blood glucose in ob/ob mice, several heptacyclic compounds, 8 days; assay type: in vivo
Procedure: Genetic spontaneous diabetes ob/ob mice were purchased from Jackson (USA), and maintained in a SPF facility (temperature: 22-24° C., humidity: 45-80%, illumination: 150-300 Lx, 12/12-hour light/dark cycle). Fasting blood glucose was determined for 3 days continuously when the mice were 7 weeks old. The mice were grouped into the treatment group and the control group (6 animals per group) according to the results determined. The treatment groups were administered orally with compound E9, G0 and F7 (psoromic acid) (100 mg/kg), and the control group was administered orally with a solution of 0.1% Tween 80 (blank control), once daily for 8 days. Fasting blood glucose in mice was determined at the end of experiment.

ob/ob mice [4] = test: Hypoglycemic effect of compound F7, fasting blood glucose, 3 weeks; assay type: in vivo; details: oral 50 mg/kg once daily
Procedure: Genetic spontaneous diabetes ob/ob mice were purchased from Jackson (USA), and maintained in a SPF facility (temperature: 22-24° C., humidity: 45-80%, illumination: 150-300 Lx, 12/12-hour light/dark cycle). Fasting blood glucose was determined for 3 days continuously when the mice were 7 weeks old. The mice were grouped into the treatment group and the control group (8 animals per group) according to the results determined. The two groups were administered orally with compound F7 (50 mg/kg) and a solution of 0.1% Tween 80 respectively, once daily for 3 weeks. Fasting Blood Glucose levels of mice were measured regularly.

ob/ob mice [5] = test: Effect of F7 on glucose and lipid metabolic disorder, serum biochemical indicators; assay type: in vivo; details: oral 50 mg/kg once daily for 3 weeks
Procedure: Genetic spontaneous diabetes ob/ob mice were purchased from Jackson (USA), and maintained in a SPF facility (temperature: 22-24° C., humidity: 45-80%, illumination: 150-300 Lx, 12/12-hour light/dark cycle). Fasting blood glucose was determined daily for 3 days continuously when the mice were 7 weeks old. The mice were grouped into the treatment group and the control group (8 animals per group) according to the results determined. The two groups were administered orally with compound F7 (50 mg/kg) and a solution of 0.1% Tween 80 respectively, once daily for 3 weeks. Another group of C57 mice was used as normal control. At the end of administration, blood samples were collected in each group, the serum was separated and serum biochemical indicators were detected.

[6] = Properties of psoromic acid (solubility, acidity, stability); assay type: physicochemical
Procedure: As a preferred embodiment of the present invention, the compound of the present invention is psoromic acid, F7, a white needle crystal, which is odorless, faintly bitter, with melting point of 265-266° C.

With `COc1cc(C(=O)O)c2c(c1C)OC(=O)c1c(C)cc(O)c(C=O)c1O2` [Compound F7, 4-Formyl-3-hydroxy-8-methoxy-1,9-dimethyl-11-oxo-11H-dibenzo[b,e][1,4]dioxepine-6-carboxylic acid] the “Level of phosphorylation for ACC protein versus DMSO control” value [1] was “improved significantly”, the “Level of phosphorylation for AMPK protein versus DMSO control” value [2] was “significant up-regulation; also recorded: increased significantly” and the “Fasting Blood Glucose” value (ob/ob mice [3]; before administration) was 11.94 ± 1.50 mM. For the same compound, the “Fasting blood glucose change in words” value (ob/ob mice [3]; dosed continuously for 8 days, P<0.05) was “reduced statistically significant”, the “Fasting Blood Glucose” value (ob/ob mice [3]; oral 100 mg/kg once daily, after 8 days treatment) was 8.12 ± 1.04 mM and the “Fasting Blood Glucose” value (ob/ob mice [4]; 0 day) was 14.0 ± 1.8 mM. For the same compound, the “Fasting Blood Glucose” value (ob/ob mice [4]; 4 day) was 11.3 ± 2.5 mM, the “Fasting Blood Glucose” value (ob/ob mice [4]; 8 day) was 11.1 ± 2.0 mM and the “Fasting Blood Glucose” value (ob/ob mice [4]; 11 day) was 8.8 ± 1.5 mM. The “Fasting Blood Glucose” value (ob/ob mice [4]; 15 day) was 8.5 ± 2.5 mM, the “Fasting Blood Glucose” value (ob/ob mice [4]; 21 day, 50 mg/kg) was 7.4 mM and 7.4 ± 1.3 mM and the “Reduction of fasting blood glucose” value (ob/ob mice [4]; day 15 after administration) was 42%. The “CHOL (total cholesterol), serum” value (ob/ob mice [5]) was 6.0 ± 0.8 mmol/L, the “FRU (fructosamine), serum” value (ob/ob mice [5]) was 225.0 ± 40.4 µmol/L and the “NFFA (unsaturated free fatty acid), serum” value (ob/ob mice [5]) was 1.15 ± 0.17 mmol/L. The “TG (triglycerides), serum” value (ob/ob mice [5]) was 72.1 ± 11.1 mg/dL, the UA (uric acid), serum (ob/ob mice [5]) was 316 ± 109 µM and the “Solubility in organic solvents” value ([6]; DMSO, ethanol, acetone and ethyl acetate) was “soluble in organic solvents”. The “pH (acidic)” value ([6]; in water) was 3-4, the Stability ([6]; room temperature) was “stable at room temperature” and the Solubility in water ([6]; water) was “slightly soluble in water”.
